Assay results taken from patent US20160046618A1, “Cyclopropyl Fused Thiazin-2-Amine Compounds as Beta-Secretase Inhibitors and Methods of Use” (AMGEN INC., priority 2014, published 2016).
Like-named read-outs stand apart in the source and are kept apart here.

Experiments:
human recombinant BACE1 = human recombinant BACE1 (Homo sapiens (Human), UniProt P56817); experiment: In vitro enzymatic BACE1 FRET assay; assay type: biochemical; conditions: read-out: IC50 IP (μM) BACE1 enzyme
Method in brief: (§1)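 Ni-NTA-purified recombinant enzyme incubated 1 h with 50 nM FRET peptide substrate (fluorophore and quencher flanking the BACE cleavage site). Reaction stopped with Tris buffer raising pH to neutrality; cleavage-released fluorescence read at ex 488/em 590 nm.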

human recombinant BACE2 = human recombinant BACE2 (Homo sapiens (Human), UniProt Q9Y5Z0); experiment: In vitro enzymatic BACE2 FRET assay; assay type: biochemical; conditions: read-out: IC50 IP (μM) BACE2 enzyme
Method in brief: as §1

[1] = test system: Aβ40 in conditioned medium of cells stably expressing Amyloid Precursor Protein (APP); experiment: In vitro BACE-1 cell-based assay (Aβ40 sandwich ELISA); conditions: read-out: IC50 IP (μM) BACE1 cell
Method in brief: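 APP-stable cells, pre-cultured 24 h at 37° C in DMEM/10% FBS, were treated 24 h with compound in a 10-point series starting at 100 μM or 10 μM (0.1% DMSO final). Secreted Aβ40 in conditioned medium was measured by pAb40/biotin-6E10 sandwich ELISA with Europium time-resolved fluorescence; IC50 from percent inhibition versus concentration.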

Recombinant Cat D = Recombinant Cat D (Homo sapiens (Human), UniProt P07339); experiment: In vitro enzymatic Cathepsin D (Cat D) FRET assay; assay type: biochemical; conditions: read-out: IC50 IP (μM) CatD
Method in brief: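 Cleavage of a 20 nM FRET peptide by CHO-derived Cat D over 1 h at pH 3.5 (citrate buffer with CHAPS, 10% DMSO final). Endpoint fluorescence is read after Tris quench.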

Sequence of human recombinant BACE1 (P56817 46-501): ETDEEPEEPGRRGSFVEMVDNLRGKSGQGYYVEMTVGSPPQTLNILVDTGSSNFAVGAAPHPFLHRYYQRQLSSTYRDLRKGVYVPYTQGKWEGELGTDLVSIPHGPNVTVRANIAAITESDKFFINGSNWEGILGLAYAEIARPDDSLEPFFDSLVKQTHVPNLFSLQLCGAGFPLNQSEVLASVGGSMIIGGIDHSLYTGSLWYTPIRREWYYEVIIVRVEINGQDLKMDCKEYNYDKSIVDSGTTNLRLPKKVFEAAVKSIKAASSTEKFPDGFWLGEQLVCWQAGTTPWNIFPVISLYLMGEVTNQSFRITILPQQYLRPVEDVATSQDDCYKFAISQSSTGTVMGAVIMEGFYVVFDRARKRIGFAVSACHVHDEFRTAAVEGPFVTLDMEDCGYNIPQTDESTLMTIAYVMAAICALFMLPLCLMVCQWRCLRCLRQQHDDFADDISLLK
Sequence of Recombinant Cat D (P07339 65-412): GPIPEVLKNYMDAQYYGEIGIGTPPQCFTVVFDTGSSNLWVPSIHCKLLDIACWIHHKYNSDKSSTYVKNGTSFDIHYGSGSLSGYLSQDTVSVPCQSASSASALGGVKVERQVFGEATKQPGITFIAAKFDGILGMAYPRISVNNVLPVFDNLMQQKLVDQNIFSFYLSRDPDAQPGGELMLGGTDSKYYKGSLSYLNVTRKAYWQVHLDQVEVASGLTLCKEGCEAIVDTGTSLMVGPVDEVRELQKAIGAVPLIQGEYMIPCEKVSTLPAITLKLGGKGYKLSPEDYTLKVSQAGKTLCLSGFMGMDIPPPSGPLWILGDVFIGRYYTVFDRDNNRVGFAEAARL
Sequence of human recombinant BACE2 (Q9Y5Z0 63-518): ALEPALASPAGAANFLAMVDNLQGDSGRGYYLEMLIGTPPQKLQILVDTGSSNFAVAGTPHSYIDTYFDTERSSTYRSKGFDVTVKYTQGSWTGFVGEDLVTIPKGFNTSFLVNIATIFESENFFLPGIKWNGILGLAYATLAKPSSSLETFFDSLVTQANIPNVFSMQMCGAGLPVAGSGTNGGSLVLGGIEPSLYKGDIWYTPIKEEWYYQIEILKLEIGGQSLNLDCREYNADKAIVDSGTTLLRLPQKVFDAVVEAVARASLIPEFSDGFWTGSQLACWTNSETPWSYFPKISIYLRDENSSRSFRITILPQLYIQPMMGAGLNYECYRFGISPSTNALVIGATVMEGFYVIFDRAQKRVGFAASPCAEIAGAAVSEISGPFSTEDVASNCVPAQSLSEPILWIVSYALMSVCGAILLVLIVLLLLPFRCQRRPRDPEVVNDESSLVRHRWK

IC50 (human recombinant BACE1; BACE1 FRET enzyme assay) [µM] | IC50 (human recombinant BACE2; BACE2 FRET enzyme assay) [µM] | IC50 ([1]; BACE1 cell-based assay) [µM] | IC50 (Recombinant Cat D; Cathepsin D FRET enzyme assay) [µM] | IC50 (human recombinant BACE1) [µM] | IC50 (human recombinant BACE2) [µM] | IC50 [1] [µM] | IC50 (Recombinant Cat D) [µM] | SMILES
 |  |  |  | 0.00118 | 0.0998 | 0.0248 | 783 | COC[C@]12C[C@H]1[C@@](C)(c1cc(NC(=O)c3cnc(OCC4CCC4)cn3)cc(F)c1F)N=C(N)S2 [Example 1020, N-(3-((1S,5S,6S)-3-amino-1-(methoxymethyl)-5-methyl-2-thia-4-azabicyclo[4.1.0]hept-3-en-5-yl)-4,5-difluorophenyl)-5-(cyclobutylmethoxy)pyrazine-2-carboxamide]
 |  |  |  | 0.000577 | 0.0245 | 0.0197 | 792 | C#CCOc1cnc2c(Nc3ccc(F)c([C@@]4(CF)N=C(N)S[C@@]5(c6cnco6)C[C@@H]45)c3)ncnc2c1 [Example 782, N-(3-((1S,5S,6S)-3-amino-5-(fluoromethyl)-1-(1,3-oxazol-5-yl)-2-thia-4-azabicyclo[4.1.0]hept-3-en-5-yl)-4-fluorophenyl)-7-(2-propyn-1-yloxy)pyrido[3,2-d]pyrimidin-4-amine]
 |  |  |  | 0.00105 | < 0.00203 | 0.0031 | 848 | COC1CN(C(=O)/C=C/[C@]23C[C@H]2[C@@](CF)(c2cc(NC(=O)c4ccc(Cl)cn4)ccc2F)N=C(N)S3)C1 [Example 766, N-(3-((1R,5S,6S)-3-amino-5-(fluoromethyl)-1-((E)-3-(3-methoxyazetidin-1-yl)-3-oxoprop-1-en-1-yl)-2-thia-4-azabicyclo[4.1.0]hept-3-en-5-yl)-4-fluorophenyl)-5-chloropicolinamide]
 |  |  |  | 0.000313 | 0.00575 | 0.000583 | 7.95 | C#CCOc1cnc(C(=O)Nc2ccc(F)c([C@@]3(CF)N=C(N)S[C@@]4(/C=C/C(=O)N(C)C)C[C@H]43)c2)cn1 [Example 774, N-(3-((1R,5S,6S)-3-amino-1-((1E)-3-(dimethylamino)-3-oxo-1-propen-1-yl)-5-(fluoromethyl)-2-thia-4-azabicyclo[4.1.0]hept-3-en-5-yl)-4-fluorophenyl)-5-(2-propyn-1-yloxy)-2-pyrazinecarboxamide]
 |  |  |  | 0.000467 | 0.00101 | 0.000795 | > 400 | C#CCOc1cnc2c(Nc3cc(F)c(F)c([C@@]4(C)N=C(N)S[C@@]5(C(=O)N(C)C)C[C@H]54)c3)nccc2n1 [Example 912, (1S,5S,6S)-3-amino-5-(2,3-difluoro-5-((2-(2-propyn-1-yloxy)pyrido[3,4-b]pyrazin-5-yl)amino)phenyl)-N,N,5-trimethyl-2-thia-4-azabicyclo[4.1.0]hept-3-ene-1-carboxamide]
 |  |  |  | 0.000858 | 0.0217 | 0.00125 | 1110 | CON(C)C(=O)[C@]12C[C@H]1[C@@](C)(c1cc(NC(=O)c3cnc(OCC(F)(F)F)cn3)ccc1F)N=C(N)S2 [Example 984, (1S,5S,6S)-3-amino-5-(2-fluoro-5-(5-(2,2,2-trifluoroethoxy)pyrazine-2-carboxamido)phenyl)-N-methoxy-N,5-dimethyl-2-thia-4-azabicyclo[4.1.0]hept-3-ene-1-carboxamide]
 |  |  |  | 0.00204 | 0.0786 | 0.00146 | 282 | CC#CCOc1cnc2c(Nc3ccc(F)c([C@@]4(CF)N=C(N)S[C@@]5(/C=C/C(=O)N(C)C)C[C@H]54)c3)nccc2c1 [Example 771, (2E)-3-((1R,5S,6S)-3-amino-5-(5-((3-(2-butyn-1-yloxy)-1,7-naphthyridin-8-yl)amino)-2-fluorophenyl)-5-(fluoromethyl)-2-thia-4-azabicyclo[4.1.0]hept-3-en-1-yl)-N,N-dimethyl-2-propenamide]

The next lines start with the molecule.

SMILES | IC50 (human recombinant BACE1; BACE1 FRET enzyme assay) [µM] | IC50 (human recombinant BACE2; BACE2 FRET enzyme assay) [µM] | IC50 ([1]; BACE1 cell-based assay) [µM] | IC50 (Recombinant Cat D; Cathepsin D FRET enzyme assay) [µM] | IC50 (human recombinant BACE1) [µM] | IC50 (human recombinant BACE2) [µM] | IC50 [1] [µM] | IC50 (Recombinant Cat D) [µM]
COc1cnc2c(Nc3cc(F)c(F)c([C@@]4(C)N=C(N)S[C@@]5(CO)C[C@H]54)c3)nccc2c1 [Example 89, ((1S,5S,6S)-3-amino-5-(2,3-difluoro-5-((3-methoxy-1,7-naphthyridin-8-yl)amino)phenyl)-5-methyl-2-thia-4-azabicyclo[4.1.0]hept-3-en-1-yl)methanol] | 0.0228 | 0.0364 | 0.0198 | > 400 |  |  |  | 
C#CCOc1cnc2c(Nc3cnc(F)c([C@@]4(C)N=C(N)S[C@@]5([C@H](OC)C(F)(F)F)C[C@H]54)c3)nccc2n1 [Example 676, N-(5-((1S,5S,6S)-3-amino-5-methyl-1-((1R)-2,2,2-trifluoro-1-methoxyethyl)-2-thia-4-azabicyclo[4.1.0]hept-3-en-5-yl)-6-fluoro-3-pyridinyl)-2-(2-propyn-1-yloxy)pyrido[3,4-b]pyrazin-5-amine] |  |  |  |  | 0.00155 | 0.0157 | 0.0033 | 337
N#CC[C@]12C[C@H]1[C@@](CF)(c1cc(Nc3nccc4cc(C#N)cnc34)ccc1F)N=C(N)S2 [Example 719, 8-((3-((1R,5S,6S)-3-amino-1-(cyanomethyl)-5-(fluoromethyl)-2-thia-4-azabicyclo[4.1.0]hept-3-en-5-yl)-4-fluorophenyl)amino)-1,7-naphthyridine-3-carbonitrile] |  |  |  |  | 0.00442 | 0.00397 | 0.0138 | 1490
C#C[C@H](C)Oc1cnc(C(=O)Nc2ccc(F)c([C@@]3(C)N=C(N)S[C@@]4(COC)C[C@H]43)c2)c(C)c1 [Example 649, N-(3-((1S,5S,6S)-3-amino-1-(methoxymethyl)-5-methyl-2-thia-4-azabicyclo[4.1.0]hept-3-en-5-yl)-4-fluorophenyl)-3-methyl-5-(((1S)-1-methyl-2-propyn-1-yl)oxy)-2-pyridinecarboxamide] |  |  |  |  | 0.0646 | 0.284 | 0.131 | 803
C#CCOc1cnc(C(=O)Nc2cc(F)c(F)c([C@@]3(C)N=C(N)S[C@@]4(S(C)(=O)=O)C[C@H]43)c2)cn1 [Example 744, N-(3-((1R,5S,6S)-3-amino-5-methyl-1-(methylsulfonyl)-2-thia-4-azabicyclo[4.1.0]hept-3-en-5-yl)-4,5-difluorophenyl)-5-(2-propyn-1-yloxy)-2-pyrazinecarboxamide] |  |  |  |  | 0.00029 | 0.0183 | 0.000872 | 46.5
N#CCC[C@]12C[C@H]1[C@@](CF)(c1cc(NC(=O)c3ccc(Cl)cn3)ccc1F)N=C(N)S2 [Example 723, N-(3-((1S,5S,6S)-3-amino-1-(2-cyanoethyl)-5-(fluoromethyl)-2-thia-4-azabicyclo[4.1.0]hept-3-en-5-yl)-4-fluorophenyl)-5-chloro-2-pyridinecarboxamide] |  |  |  |  | 0.00169 | < 0.00203 | 0.00431 | 282
C[C@]1(c2cc(Nc3ncnc4cc(OCc5ncco5)cnc34)cnc2F)N=C(N)S[C@]2(CO)[C@H]1C2(F)F [Example 664, ((1S,5S,6R)-3-amino-7,7-difluoro-5-(2-fluoro-5-((7-(1,3-oxazol-2-ylmethoxy)pyrido[3,2-d]pyrimidin-4-yl)amino)-3-pyridinyl)-5-methyl-2-thia-4-azabicyclo[4.1.0]hept-3-en-1-yl)methanol] |  |  |  |  | 0.000274 | 0.046 | 0.0143 | > 400
C[C@]1(c2cc(Nc3ncnc4cc(OCc5ncco5)cnc34)cnc2F)N=C(N)S[C@@]2(CF)C[C@H]21 [Example 605, N-(5-((1S,5S,6S)-3-amino-1-(fluoromethyl)-5-methyl-2-thia-4-azabicyclo[4.1.0]hept-3-en-5-yl)-6-fluoro-3-pyridinyl)-7-(1,3-oxazol-2-ylmethoxy)pyrido[3,2-d]pyrimidin-4-amine] |  |  |  |  | 0.00178 | 0.114 | 0.00149 | 1290
NC1=N[C@](CF)(c2cc(NC(=O)c3ccc(Cl)cn3)ccc2F)[C@@H]2C[C@]2(CCCO)S1 [Example 758, N-(3-((1S,5S,6S)-3-amino-5-(fluoromethyl)-1-(3-hydroxypropyl)-2-thia-4-azabicyclo[4.1.0]hept-3-en-5-yl)-4-fluorophenyl)-5-chloropicolinamide] |  |  |  |  | 0.00156 | < 0.00203 | 0.00195 | 2070
NC1=N[C@](CF)(c2cc(NC(=O)c3ccc(Cl)cn3)ccc2F)[C@@H]2C[C@]2(/C=C/C(=O)N2CCOCC2)S1 [Example 764, N-(3-((1R,5S,6S)-3-amino-5-(fluoromethyl)-1-((E)-3-morpholino-3-oxoprop-1-en-1-yl)-2-thia-4-azabicyclo[4.1.0]hept-3-en-5-yl)-4-fluorophenyl)-5-chloropicolinamide] |  |  |  |  | 0.00073 | < 0.00203 | 0.000856 | 518
NC1=N[C@](CF)(c2cc(Nc3nncc4cc(Br)cnc34)ccc2F)C2C[C@@H]2S1 (stereo in doubt) [Example 67, N-(3-((1S,5S,6S)-3-amino-5-(fluoromethyl)-2-thia-4-azabicyclo[4.1.0]hept-3-en-5-yl)-4-fluorophenyl)-3-bromopyrido[2,3-d]pyridazin-8-amine] | 0.0137 | 0.00616 | 0.0208 | 738 |  |  |  | 
